Measurements taken from patent US11753408B2, “Compounds and method for blocking transmission of malarial parasite” (The United States of America, as represented by the …, priority 2016, dated 2023).

Assays:
[1] = target: mTOR (Homo sapiens, UniProt P42345); test: mTOR activity (no method described); type: biochemical
[2] = Solubility at pH 7.4; type: physicochemical
[3] = Microsomal stability (rat); type: in vitro ADME; conditions: rat microsomes
[4] = system: Asexual parasites of P. falciparum strain 3D7; test: In vitro drug activity on asexual parasites (SYBR Green assay); type: cell-based, Plasmodium falciparum
Method in brief: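 SYBR Green I fluorescence (ex 490, em 520 nm) was read after freeze-thaw lysis and 30 min staining at room temperature. Before that, drug-treated cultures (0.5% parasitemia, 2% hematocrit, DMSO ≤0.5%) were incubated 72 h, in duplicate.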

[5] = PAMPA permeability; type: in vitro ADME

SMILES	mTOR [1] [µM]	Sol @ pH 7.4 [2] [ug/mL]	Microsomal Stability (rat) T1/2 [3] [min]	EC50 [4] [nM]	PAMPA Permeability [5] [×10⁻⁶ cm/s]
CCN(CC)CCNC(=O)c1ccc(-n2c(=O)ccc3cnc4ccc(-c5ccc(Cl)cc5)cc4c32)c(OC)c1 [Compound 249]	14.76	>82	7.9	576	1070
COc1cc(C(=O)NC2CCN(CCN(C)C)CC2)ccc1-n1c(=O)ccc2cnc3ccc(-c4ccc(Cl)cc4)cc3c21 [Compound 250]	2.911	9.5	>30	549	14.3
COc1cc(C(=O)NCCN(C)c2ccccc2)ccc1-n1c(=O)ccc2cnc3ccc(-c4ccc(Cl)cc4)cc3c21 [Compound 251]	100	<1	1.3	2370	< 1
COc1cc(C(=O)NCCN2CCC2)ccc1-n1c(=O)ccc2cnc3ccc(-c4ccc(Cl)cc4)cc3c21 [Compound 253]	8.463	>80	>30	258	353
COc1cc(C(=O)NC2CCN(CCO)CC2)ccc1-n1c(=O)ccc2cnc3ccc(-c4ccc(Cl)cc4)cc3c21 [Compound 254]	3.012	53.1	>30	206	5.7
COc1cc(C(=O)NCCCN2CCC(C)CC2)ccc1-n1c(=O)ccc2cnc3ccc(-c4ccc(Cl)cc4)cc3c21 [Compound 255]	12.95	>88	2.3	182	1040
COc1cc(C(=O)NCCN2CCCCC2)ccc1-n1c(=O)ccc2cnc3ccc(-c4ccc(Cl)cc4)cc3c21 [Compound 256]	8.776	<1	3.5	501	664
COc1cc(C(=O)NCCN2CCNCC2)ccc1-n1c(=O)ccc2cnc3ccc(-c4ccc(Cl)cc4)cc3c21 [Compound 257]	2.719	>84	>30	60.8	1.5
COc1cc(C(=O)NC2CC2)ccc1-n1c(=O)ccc2cnc3ccc(-c4ccc(F)c(O)c4)cc3c21 [Compound 272]	5.227	11.8	21.9	52.1	626
Cc1cc(C(=O)NCCN(C)C)ccc1-n1c(=O)ccc2cnc3ccc(-c4ccc(Cl)cc4)cc3c21 [Compound 274]	4.9	63.8	21.4	40.6	1010
Cc1cc(C(=O)NCCCN(C)C)ccc1-n1c(=O)ccc2cnc3ccc(-c4ccc(Cl)cc4)cc3c21 [Compound 275]	4.039	65.6	19.9	44.2	427
CCN(CC)CCNC(=O)c1ccc(-n2c(=O)ccc3cnc4ccc(-c5ccc(Cl)cc5)cc4c32)c(C)c1 [Compound 276]	21.76	34.8	5.8	222	973
Cc1cc(C(=O)NCCN2CCN(C)CC2)ccc1-n1c(=O)ccc2cnc3ccc(-c4ccc(Cl)cc4)cc3c21 [Compound 277]	3.631	19.9	3.8	82.5	354
Cc1cc(C(=O)NCCCN2CCCCC2)ccc1-n1c(=O)ccc2cnc3ccc(-c4ccc(Cl)cc4)cc3c21 [Compound 278]	8	>83	2.6	110	1380
Cc1cc(C(=O)NC2CCN(CCO)CC2)ccc1-n1c(=O)ccc2cnc3ccc(-c4ccc(Cl)cc4)cc3c21 [Compound 279]	1.317	>84	15.8	50.5	49.1
Cc1cc(C(=O)NC2CCN(CCN(C)C)CC2)ccc1-n1c(=O)ccc2cnc3ccc(-c4ccc(Cl)cc4)cc3c21 [Compound 280]	1.609	73.6	>30	152	49.1
Cc1cc(C(=O)NCCCN(CCO)CCO)ccc1-n1c(=O)ccc2cnc3ccc(-c4ccc(Cl)cc4)cc3c21 [Compound 281]	2.18	>86	3	27.4	33.4
Cc1cc(C(=O)NCCCN2CCN(C)CC2)ccc1-n1c(=O)ccc2cnc3ccc(-c4ccc(Cl)cc4)cc3c21 [Compound 282]	4.536	>86	4.1	71.4	598
Cc1cc(C(=O)NCCCN2CCC(C)CC2)ccc1-n1c(=O)ccc2cnc3ccc(-c4ccc(Cl)cc4)cc3c21 [Compound 283]	15.09	70.7	2.7	69.1	1180
CCN(CC)CCNC(=O)c1ccc(-n2c(=O)ccc3cnc4ccc(-c5ccc(Cl)cc5)cc4c32)cc1 [Compound 284]	9.354	36.6	7.5	183	281
O=C(NCCN1CCC1)c1ccc(-n2c(=O)ccc3cnc4ccc(-c5ccc(Cl)cc5)cc4c32)cc1 [Compound 285]	1.506	41.6	>30	59.7	159
CC1CCN(CCCNC(=O)c2ccc(-n3c(=O)ccc4cnc5ccc(-c6ccc(Cl)cc6)cc5c43)cc2)CC1 [Compound 286]	11.77	35.6	2.4	53.7	863
CCC(=O)NCCNC(=O)c1ccc(-n2c(=O)ccc3cnc4ccc(-c5ccc(Cl)cc5)cc4c32)cc1 [Compound 287]	2.083	<1	4.3	58.4	21.7
O=C(NCC1CCOCC1)c1ccc(-n2c(=O)ccc3cnc4ccc(-c5ccc(Cl)cc5)cc4c32)cc1 [Compound 288]	1.258	<1	1.2	284	18.8
Cc1cc(C(=O)NCCCN2CCS(=O)(=O)CC2)ccc1-n1c(=O)ccc2cnc3ccc(-c4ccc(Cl)cc4)cc3c21 [Compound 289]	9.216	<1	1.7	86.7	141
CCN(CC)CCCNC(=O)c1ccc(-n2c(=O)ccc3cnc4ccc(-c5ccc(Cl)cc5)cc4c32)c(C)c1 [Compound 290]	4.806	63.1	3	64.4	311
Cc1cc(C(=O)NCCN2CCCCC2)ccc1-n1c(=O)ccc2cnc3ccc(-c4ccc(Cl)cc4)cc3c21 [Compound 291]	4.975	0	3.1	211	773
